Key:
Assay type in all cases: in vivo
[1] = tested on: Blumeria graminis f. sp. tritici; assay: Test C: test suspension sprayed on wheat seedlings, inoculated next day with Blumeria graminis f. sp. tritici (wheat powdery mildew); visual disease rating (100 = 100% disease control, 0 = no control; dash = not tested)
Description: The resulting test suspensions were then used in Tests A-F. The test suspension was sprayed to the point of run-off on wheat seedlings. The following day the seedlings were inoculated with a spore dust of Blumeria graminis f. sp. tritici, (also known as Erysiphe graminis f. sp. tritici, the causal agent of wheat powdery mildew) and incubated in a growth chamber at 20° C. for 8 days, after which time visual disease ratings were made. A rating of 100 indicates 100% disease control and a rating of 0 indicates no disease control (relative to the controls). A dash (—) indicates the compound was not tested.

[2] = tested on: Alternaria solani; assay: Test F: test suspension sprayed on tomato seedlings, inoculated next day with Alternaria solani (tomato early blight); visual disease rating (100 = 100% disease control, 0 = no control; dash = not tested)
Description: (§1) The resulting test suspensions were then used in Tests A-F. The test suspension was sprayed to the point of run-off on tomato seedlings. The following day the seedlings were inoculated with a spore suspension of Alternaria solani (the causal agent of tomato early blight) and incubated in a saturated atmosphere at 27° C. for 48 h, and then moved to a growth chamber at 20° C. for 3 days, after which time visual disease ratings were made. A rating of 100 indicates 100% disease control and a rating of 0 indicates no disease control (relative to the controls). A dash (—) indicates the compound was not tested.

[3] = tested on: Botrytis cinerea; assay: Test E: test suspension sprayed on tomato seedlings, inoculated next day with Botrytis cinerea (tomato Botrytis); visual disease rating (100 = 100% disease control, 0 = no control; dash = not tested)
Description: as §1, with “Botrytis cinerea” for “Alternaria solani”, “Botrytis)” for “early blight)”, “20°” for “27°”, “24°” for “20°”

[4] = tested on: Puccinia recondita f. sp. tritici; assay: Test B: test solution sprayed on wheat seedlings, inoculated next day with Puccinia recondita f. sp. tritici (wheat leaf rust); disease rating (100 = 100% disease control, 0 = no control; dash = not tested)
Text: The resulting test suspensions were then used in Tests A-F. The test solution was sprayed to the point of run-off on wheat seedlings. […] A rating of 100 indicates 100% disease control and a rating of 0 indicates no disease control (relative to the controls). A dash (—) indicates the compound was not tested.

[5] = tested on: Phakopsora pachyrhizi; assay: Test D: test solution sprayed on soybean seedlings, inoculated next day with Phakopsora pachyrhizi (Asian soybean rust); visual disease rating (100 = 100% disease control, 0 = no control; dash = not tested)
Text: General protocol for preparing test suspensions for Tests A-F: the test compounds were first dissolved in acetone in an amount equal to 3% of the final volume and then suspended at the desired concentration (in ppm) in acetone and purified water (50/50 mix by volume) containing 250 ppm of the surfactant PEG400 (polyhydric alcohol esters). The resulting test suspensions were then used in Tests A-F.
The test solution was sprayed to the point of run-off on soybean seedlings. The following day the seedlings were inoculated with a spore suspension of Phakopsora pachyrhizi (the causal agent of Asian soybean rust) and incubated in a saturated atmosphere at 22° C. for 24 h and then moved to a growth chamber at 22° C. for 8 days, after which time visual disease ratings were made.
A rating of 100 indicates 100% disease control and a rating of 0 indicates no disease control (relative to the controls). A dash (—) indicates the compound was not tested.

[6] = tested on: Zymoseptoria tritici; assay: Test A: test solution sprayed on wheat seedlings, inoculated next day with Zymoseptoria tritici (wheat leaf blotch); disease rating (100 = 100% disease control, 0 = no control; dash = not tested)
Description: The resulting test suspensions were then used in Tests A-F. The test solution was sprayed to the point of run-off on wheat seedlings. The following day the seedlings were inoculated with a spore suspension of Zymoseptoria tritici (the causal agent of wheat leaf blotch) and incubated in a saturated atmosphere at 24° C. for 48 h, and then moved to a growth chamber at 20° C. for 17 days, after which time disease ratings were made. A rating of 100 indicates 100% disease control and a rating of 0 indicates no disease control (relative to the controls). A dash (—) indicates the compound was not tested.

## COc1cc(F)cc(-c2nn(C)c(=O)cc2-c2c(F)cccc2F)c1Cl [Compound 206]
[1]; 50 ppm
  Test C disease control rating: 93%
[2]; 50 ppm
  Test F disease control rating: 76%
[3]; 50 ppm
  Test E disease control rating: 100%
[4]; 50 ppm
  Test B disease control rating: 100%
[5]; 50 ppm
  Test D disease control rating: 65%
[6]; 50 ppm
  Test A disease control rating: 97%

## COc1ccc(Cl)c(-c2nn(C)c(=O)c(Cl)c2-c2ccc(F)cc2Br)c1 [Compound 97]
[1]; 50 ppm
  Test C disease control rating: 100%
[2]; 50 ppm
  Test F disease control rating: 99%
[3]; 50 ppm
  Test E disease control rating: 96%
[4]; 50 ppm
  Test B disease control rating: 100%
[5]; 50 ppm
  Test D disease control rating: 100%
[6]; 50 ppm
  Test A disease control rating: 100%

## CCn1nc(-c2cc(OC)cc(OC)c2Cl)c(-c2c(F)cccc2F)c(OC)c1=O [Compound 75]
[1]; 50 ppm
  Test C disease control rating: 98%
[2]; 50 ppm
  Test F disease control rating: 0%
[3]; 50 ppm
  Test E disease control rating: 97%
[4]; 50 ppm
  Test B disease control rating: 99%
[5]; 50 ppm
  Test D disease control rating: 69%
[6]; 50 ppm
  Test A disease control rating: 100%

## COc1cc(F)c(Cl)c(-c2nn(C)c(=O)c(OC)c2-c2ccc(F)cc2Cl)c1 [Compound 164]
[1]; 50 ppm
  Test C disease control rating: 99%
[2]; 50 ppm
  Test F disease control rating: 100%
[3]; 50 ppm
  Test E disease control rating: 99%
[4]; 50 ppm
  Test B disease control rating: 100%
[5]; 50 ppm
  Test D disease control rating: 100%
[6]; 50 ppm
  Test A disease control rating: 100%

## Cn1nc(-c2ccccc2)c(-c2c(F)cccc2F)cc1=O [Compound 191]
[1]; 250 ppm
  Test C disease control rating: 99%
[2]; 250 ppm
  Test F disease control rating: 0%
[3]; 250 ppm
  Test E disease control rating: 99%
[4]; 250 ppm
  Test B disease control rating: 9%
[5]; 250 ppm
  Test D disease control rating: 0%
[6]; 250 ppm
  Test A disease control rating: 72%

## COc1cc(OC)c(F)c(-c2nn(C)c(=O)c(Cl)c2-c2ccc(F)cc2Cl)c1 [Compound 155]
[1]; 50 ppm
  Test C disease control rating: 100%
[2]; 50 ppm
  Test F disease control rating: 100%
[3]; 50 ppm
  Test E disease control rating: 100%
[4]; 50 ppm
  Test B disease control rating: 100%
[5]; 50 ppm
  Test D disease control rating: 100%
[6]; 50 ppm
  Test A disease control rating: 99%

## COc1ccc(Cl)c(-c2nn(C)c(=O)c(Cl)c2-c2ccccc2)c1 [Compound 95]
[1]; 50 ppm
  Test C disease control rating: 97%
[2]; 50 ppm
  Test F disease control rating: 24%
[3]; 50 ppm
  Test E disease control rating: 96%
[4]; 50 ppm
  Test B disease control rating: 99%
[5]; 50 ppm
  Test D disease control rating: 0%
[6]; 50 ppm
  Test A disease control rating: 100%

## Cn1nc(-c2cc(F)ccc2Cl)c(-c2ccc(F)cc2Cl)cc1=O [Compound 126]
[1]; 50 ppm
  Test C disease control rating: 98%
[2]; 50 ppm
  Test F disease control rating: 15%
[3]; 50 ppm
  Test E disease control rating: 98%
[4]; 50 ppm
  Test B disease control rating: 74%
[5]; 50 ppm
  Test D disease control rating: 0%
[6]; 50 ppm
  Test A disease control rating: 95%

## COCc1c(-c2ccc(F)cc2Cl)c(-c2ccc(F)cc2Cl)nn(C)c1=O [Compound 122]
[1]; 50 ppm
  Test C disease control rating: 98%
[2]; 50 ppm
  Test F disease control rating: 0%
[3]; 50 ppm
  Test E disease control rating: 53%
[4]; 50 ppm
  Test B disease control rating: 0%
[5]; 50 ppm
  Test D disease control rating: 0%
[6]; 50 ppm
  Test A disease control rating: 100%

## Cn1nc(-c2c(F)cccc2F)c(-c2c(F)cccc2F)cc1=O [Compound 5, 5,6-bis(2,6-difluorophenyl)-2-methyl-3(2H)-pyridazinone]
[1]; 250 ppm
  pest or weed control at 250 ppm: 100%
[2]; 250 ppm
  pest or weed control at 250 ppm: 0%
[3]; 250 ppm
  pest or weed control at 250 ppm: 99%
[4]; 250 ppm
  pest or weed control at 250 ppm: 0%
[5]; 250 ppm
  pest or weed control at 250 ppm: 0%
[6]; 250 ppm
  pest or weed control at 250 ppm: 42%

## COc1cc(F)c(Cl)c(-c2nn(C)c(=O)cc2-c2c(F)cccc2F)c1 [Compound 205]
[1]; 50 ppm
  Test C disease control rating: 98%
[2]; 50 ppm
  Test F disease control rating: 99%
[3]; 50 ppm
  Test E disease control rating: 99%
[4]; 50 ppm
  Test B disease control rating: 99%
[5]; 50 ppm
  Test D disease control rating: 71%
[6]; 50 ppm
  Test A disease control rating: 100%

## COc1ccc(Cl)c(-c2nn(C)c(=O)c(Br)c2-c2c(F)cccc2F)c1 [Compound 69]
[1]; 50 ppm
  Test C disease control rating: 100%
[2]; 50 ppm
  Test F disease control rating: 100%
[3]; 50 ppm
  Test E disease control rating: 100%
[4]; 50 ppm
  Test B disease control rating: 99%
[5]; 50 ppm
  Test D disease control rating: 100%
[6]; 50 ppm
  Test A disease control rating: 100%

## CCOc1ccc(Cl)c(-c2nn(C)c(=O)c(C)c2-c2ccc(F)cc2Cl)c1 [Compound 175]
[1]; 50 ppm
  Test C disease control rating: 99%
[2]; 50 ppm
  Test F disease control rating: 100%
[3]; 50 ppm
  Test E disease control rating: 98%
[4]; 50 ppm
  Test B disease control rating: 100%
[5]; 50 ppm
  Test D disease control rating: 100%
[6]; 50 ppm
  Test A disease control rating: 100%

## Cn1nc(-c2ccc(F)cc2Cl)c(-c2ccc(F)cc2Cl)c(C(F)F)c1=O [Compound 130]
[2]; 50 ppm
  Test F disease control rating: 98%
[3]; 50 ppm
  Test E disease control rating: 98%
[4]; 50 ppm
  Test B disease control rating: 100%
[5]; 50 ppm
  Test D disease control rating: 77%
[6]; 50 ppm
  Test A disease control rating: 100%

## Cn1nc(-c2ccc(F)cc2Cl)c(-c2ccc(F)cc2Cl)c(C(N)=O)c1=O [Compound 133]
[2]; 50 ppm
  Test F disease control rating: 0%
[3]; 50 ppm
  Test E disease control rating: 0%
[4]; 50 ppm
  Test B disease control rating: 0%
[5]; 50 ppm
  Test D disease control rating: 0%
[6]; 50 ppm
  Test A disease control rating: 3%

## CC(F)c1c(-c2ccc(F)cc2Cl)c(-c2ccc(F)cc2Cl)nn(C)c1=O (racemic) [Compound 132]
[2]; 50 ppm
  Test F disease control rating: 0%
[3]; 50 ppm
  Test E disease control rating: 97%
[4]; 50 ppm
  Test B disease control rating: 68%
[5]; 50 ppm
  Test D disease control rating: 0%
[6]; 50 ppm
  Test A disease control rating: 100%

## CC(O)c1c(-c2ccc(F)cc2Cl)c(-c2ccc(F)cc2Cl)nn(C)c1=O (racemic) [Compound 131]
[2]; 50 ppm
  Test F disease control rating: 0%
[3]; 50 ppm
  Test E disease control rating: 97%
[4]; 50 ppm
  Test B disease control rating: 74%
[5]; 50 ppm
  Test D disease control rating: 19%
[6]; 50 ppm
  Test A disease control rating: 96%

## COc1cc(C#N)cc(-c2nn(C)c(=O)c(Cl)c2-c2ccc(F)cc2Cl)c1 [Compound 173]
[1]; 50 ppm
  Test C disease control rating: 94%
[2]; 50 ppm
  Test F disease control rating: 99%
[3]; 50 ppm
  Test E disease control rating: 92%
[4]; 50 ppm
  Test B disease control rating: 100%
[5]; 50 ppm
  Test D disease control rating: 84%

## COc1cc(C#N)cc(-c2nn(C)c(=O)c(OC)c2-c2ccc(F)cc2Cl)c1 [Compound 174]
[1]; 50 ppm
  Test C disease control rating: 97%
[2]; 50 ppm
  Test F disease control rating: 91%
[3]; 50 ppm
  Test E disease control rating: 83%
[4]; 50 ppm
  Test B disease control rating: 95%
[5]; 50 ppm
  Test D disease control rating: 30%
